Laboratory results reported in patent US8017318B1, “Method for detecting and/or quantifying a known function from a nucleic acid sample” (priority 1998, dated 2011).

Target: T1, β-lactamase TEM-1 (Escherichia coli, UniProt P62593)
T1 construct: made in house; host or cells: cell-free in vitro translation as described by Zubay (microbial system)
Experiment: "resistance to clavulanic acid" beta-lactamase activity test with nitrocephine on in vitro translated enzyme
Format: biochemical
Conditions: sample 1 (100% germs resistant to antibiotics only, 0% double resistance); 1 μl clavulanic acid, 3 minutes at 25° C., then nitrocephine; 486 nm
Procedure: 10 μl of culture at DO600.2.3 were centrifuged and each pellet was resuspended into 12 μl of cellular lysis buffer (10 mM Tris HCl pH 7.5, 1 mM EDTA, 50 μg/ml proteinase K) and incubated 15 minutes at 55° C. then 15 minutes at 80° C. 9 μl of each of these lysates was added to a PCR amplification mixture that permitted amplification of the gene conferring monoresistance and of the gene conferring polyresistance, as well as of the sequences permitting their in vitro expression. 5 μl of each PCR amplification were used to carry out an in vitro transcription as described by Gurevich et al. (Gurevich V. A., Pokrovskaya I. D., Obukhova T. A. and Zozulya S., 1991, Preparative in vitro mRNA synthesis using SP6 and T7 polymerases, Anal. Biochem., 195, 207-213) 10 μl of each transcription was used to translate in vitro the proteins as described by Zubay (Zubay G., 1973, In vitro synthesis of protein in microbial systems, Ann. Rev. Genet., 7, 267-287) to a final volume of 100 μl
Two types of activity tests were carried out: • A measurement of the “total” beta-lactamase activity by using as substrate a chromogenic antibiotic: nitrocephine. […] The reaction was followed by monitoring absorbance changes at 486 nm. • A measurement of the “resistance to clavulanic acid” activity by using as substrate a chromogenic antibiotic: nitrocephine and a given concentration of clavulanic acid. […]

T1 sequence (P62593 24-286 limits assumed): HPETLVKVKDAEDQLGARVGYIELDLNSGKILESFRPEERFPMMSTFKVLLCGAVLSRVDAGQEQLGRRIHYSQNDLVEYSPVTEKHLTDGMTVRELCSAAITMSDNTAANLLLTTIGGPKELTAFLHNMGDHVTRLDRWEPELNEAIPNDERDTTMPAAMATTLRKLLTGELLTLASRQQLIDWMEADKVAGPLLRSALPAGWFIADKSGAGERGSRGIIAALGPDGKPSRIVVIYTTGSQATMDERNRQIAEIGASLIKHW

O=C(O)[C@H]1/C(=C/CO)O[C@@H]2CC(=O)N21 [clavulanic acid]
beta-lactamase activity detected in the presence of clavulanic acid: no activity is detected
